Data published in US6627580B2, “Chelating agents and their manganic chelates” (Akzo Nobel N.V., priority 1997, dated 2003).

Columns and labels:
[1] = Comparative test with a reduced chelant (manganic chelate of borohydride-reduced chelant); format: physicochemical
Experimental: A solution of the chelant according to Example 1 was adjusted to a concentration of 10 mmoles/L and a pH of 5. Sodium borohydride was added at 5 minute intervals until the yellow salicylimine colour disappeared. The pH was then adjusted to 8, and the manganic chelate was generated as described in Example 2 for a final pH of 8.

[2] = Soil tests with the new manganic chelate and other manganese sources; format: physicochemical
Experimental: A soil sample was taken from a sugar-beet field in Helsingborg, Sweden. It was sifted and homogenised and analysed by a certified agricultural laboratory by so-called ICP after extraction with dilute acetic of EDTA.
35 g portions of the slightly moist soil were transferred to 250 ml glass bottles together with 120 ml of dilute solutions containing about 30 ppm manganese. The solutions to be tested were made from:
The bottles were rotated in a tumbling device at about 1 revolution per second for a period of 19 days. […] The clear liquid samples were analysed by ICP.

[3] = Ahrland et al. 1990, cited from earlier work
[4] = Preference of the new chelant for manganic ions over ferric ions (citrate solutions, pH 7.8); format: physicochemical; conditions: for colour developed: pH 7.8
Experimental: In order to show the preference of the new chelants for manganic ions over ferric ions, stable, slightly alkaline solutions of these ions were prepared by chelation with two moies of citric acid. Both solutions were adjusted with sodium hydroxide to a pH of 7.8 at a concentration of 0.001 mmole/ml of manganese and iron, respectively. Three experiments were made for comparison:
a) of each solution 10 ml (0.01 mmole) was mixed, and 0.25 g of the 0.04 molar chelate (or ligand) solution from. Example 1 […] was added.
b) 10 ml of manganic citrate solution was mixed with 0.25 g of the chelate solution.
c) 10 ml of the ferric citrate solution was mixed with 0.25 g of the chelate solution.

[5] = Formation and hydrolytic stability of a ferric chelate; format: physicochemical; conditions: for Appearance of ferric chelate solution: colour observed during the next 1-2 hours
Experimental: 2 ml of the chelate solution from Example 1 (0.08 mmole) was diluted with 15 ml water and 1 ml of 0.05 molar ferric chloride solution was added dropwise. The pH was brought to 7 with dilute sodium hydroxide, giving a dark wine red solution. The solution was then gradually alkalised by the addition of dilute sodium hydroxide, and the colour was observed during the next 1-2 hours.

[6] = Shaking test with calcium carbonate; format: physicochemical
Excerpt: The test in Example 6 was repeated with the new manganic chelate but with analytical grade calcium carbonate instead of soil. The pH of the suspension was 8.5.

[7] = Hydrolytic stability of the new manganic chelate (step-wise alkalisation with dilute sodium hydroxide); format: physicochemical
Excerpt: The manganic chelate solution from Example 2 was alkalised step-wise with dilute sodium hydroxide. Samples were taken at various pH and set aside for later inspection.

[8] = pH stability of manganic and ferric chelates of the tropolone chelant; format: physicochemical
Experimental: The manganic chelate of the new chelant was prepared in analogy with Example 2 and formed a brown solution stable at pH 10.
With ferric iron ions the chelant formed a red solution at pH 5. On raising the pH the red colour started to fade at pH 7-8.

[9] = Tropolone chelant with molar equivalents of manganic and ferric ions; format: physicochemical; conditions: pH 9
[10] = b) manganic citrate solution only
[11] = c) ferric citrate solution only

With `O=C([O-])CC(NCc1ccccc1[O-])C(CC(=O)[O-])NCc1ccccc1[O-].[Mn+3]` (stereo not drawn) [Example 4] the “stability to hydrolysis of manganic chelate of reduced chelant” value [1] was “very unstable to hydrolysis”, the “result on generating the manganic chelate” value ([1]; final pH of 8) was “immediate dark precipitate” and the manganese dioxide precipitation ([1]; neutral pH) was “started to precipitate immediately”.
For `O=C(O)C(NCCNC(C(=O)O)c1ccccc1O)c1ccccc1O.[Mn+3]` (stereo not drawn) [manganic EDDHA, reference compound], the “time to colour change of centrifuged sample from brownish to red (manganese replaced by ferric iron)” value ([2]; soil test) is listed as ≤ 1 days and the “pKa for hydrolysis of manganic chelate” value ([3]; manganic chelate) is listed as 9.3.
For `O=C(O)CC(N=Cc1ccccc1O)C(CC(=O)O)N=Cc1ccccc1O` (stereo not drawn) [Example 1], the “stability of the yellow colour” value ([4]; a) manganic citrate + ferric citrate solutions) was “stable for weeks”, the colour developed ([4]; a) manganic citrate + ferric citrate solutions (0.01 mmole each)) was “yellow ochre colour” and the “stability of the yellow colour” value [4, 10] was “stable for weeks”. The colour developed [4, 10] was “yellow ochre colour”, the “time until solution turned completely red” value [4, 11] was “about one hour” and the colour developed [4, 11] was “red colour”. For the same compound, the “selectivity between ferric and manganic ions” value ([4]; near neutral pH, yellow colour stable for at least several weeks) was “remarkable preference for manganic ion”.
In the case of `O=C([O-])CC(N=Cc1ccccc1[O-])C(CC(=O)[O-])N=Cc1ccccc1[O-].[Fe+3]` (stereo not drawn) [Example 5], the “pH at which the ferric chelate starts to hydrolyse” value [5] is reported as 9, the “Appearance of ferric chelate solution” value ([5]; pH 7) is reported as “Wine red” and the “Appearance of ferric chelate solution” value ([5]; pH 8) is reported as “Wine red”. For the same compound, the “Appearance of ferric chelate solution” value ([5]; pH 9) was “Slightly lighter wine red”, the “Appearance of ferric chelate solution” value ([5]; pH 10) was “Lighter wine red” and the “Appearance of ferric chelate solution” value ([5]; pH 11) was “Much lighter wine red”.
With `O=C([O-])CC(N=Cc1ccccc1[O-])C(CC(=O)[O-])N=Cc1ccccc1[O-].[Mn+3]` (stereo not drawn) [Example 2] the “manganese content in the liquid phase” value ([6]; calcium carbonate suspension, pH 8.5, remained constant for several weeks) was 30 ppm, the “colour of liquid phase” value ([6]; calcium carbonate suspension, pH 8.5, several weeks) was “remained the same yellow ochre” and the “solubility in shaking test with calcium carbonate” value ([6]; for at least several weeks) was “completely soluble”. For the same compound, the hydrolytic stability ([6]; pH 8.5 in the presence of calcium) was “excellent hydrolytic stability”, the “soluble manganese retained, of its original content” value ([2]; after 19 days with soil of low manganese, high iron content) was “about 50%” and the “time to visible colour change of centrifuged sample to orange yellow” value ([2]; soil test) was “after a week”. For the same compound, the “pH up to which the manganic chelate forms stable solutions / is stable to hydrolysis” value ([7]; manganic chelate) was “at least 10.5”, the “appearance of manganic chelate solution” value ([7]; pH 8, after 1 h) was “clear,” and the “appearance of manganic chelate solution” value ([7]; pH 8, after 24 hours) was “clear, same colour”. For the same compound, the “appearance of manganic chelate solution” value ([7]; pH 8, after 5 days) was “clear,”, the “appearance of manganic chelate solution” value ([7]; pH 8, immediately) was “clear ochre” and the “appearance of manganic chelate solution” value ([7]; pH 9, after 1 h) was “clear,”. For the same compound, the “appearance of manganic chelate solution” value ([7]; pH 9, after 24 hours) was “clear, same colour”, the “appearance of manganic chelate solution” value ([7]; pH 9, after 5 days) was “clear,” and the “appearance of manganic chelate solution” value ([7]; pH 9, immediately) was “clear, same colour”. For the same compound, the “appearance of manganic chelate solution” value ([7]; pH 10.5, after 1 h) was “clear,”, the “appearance of manganic chelate solution” value ([7]; pH 10.5, after 24 hours) was “clear, same colour” and the “appearance of manganic chelate solution” value ([7]; pH 10.5, after 5 days) was “clear,”. The “appearance of manganic chelate solution” value ([7]; pH 10.5, immediately) was “clear, same colour”, the “appearance of manganic chelate solution” value ([7]; pH 11, after 1 h) was “clear,” and the “appearance of manganic chelate solution” value ([7]; pH 11, after 24 hours) was “slight precipitate”. For the same compound, the “appearance of manganic chelate solution” value ([7]; pH 11, after 5 days) was “slight”, the “appearance of manganic chelate solution” value ([7]; pH 11, immediately) was “clear, same colour” and the “appearance of manganic chelate solution” value ([7]; pH 11.3, after 1 h) was “precipitation”. For the same compound, the “appearance of manganic chelate solution” value ([7]; pH 11.3, after 24 hours) was “considerable dark”, the “appearance of manganic chelate solution” value ([7]; pH 11.3, after 5 days) was “as before” and the “appearance of manganic chelate solution” value ([7]; pH 11.3, immediately) was “clear, same colour”.
For `O=C(O)C(NCCNC(C(=O)O)c1ccccc1O)c1ccccc1O` (stereo not drawn) [EDDHA, ethylenediamine-di-2-hydroxyphenylacetic acid], the “pKa for hydrolysis of ferric chelate” value ([3]; ferric chelate) is listed as 12.7.
For `O=C(O)CC(N=c1cccccc1O)C(CC(=O)O)N=c1cccccc1O` (stereo not drawn) [Example 9], the “pH at which the red colour started to fade” value ([8]; ferric chelate, on raising the pH) was 7-8, the “appearance with ferric iron ions” value ([8]; ferric chelate, pH 5) was “red solution” and the “appearance with ferric iron ions” value ([8]; ferric chelate, pH 10) was “turned yellow, with precipitation of the ferric hydroxide”. The “stability of manganic chelate solution (brown)” value ([8]; manganic chelate, pH 10) was “stable” and the “colour with molar equivalents of both manganic and ferric ions (indicating preference for manganic ions)” value [9] was “stable brown colour”.
